5 molecules from US20080171697A1, “Peptides Having For Example Antiangiogenic Activity and Applications Thereof In Therapeutics” (priority 2003, published 2008) can be followed below.

The test system of test [1] is HUVECs. The test can be described thus: Study of the peptide entry process in HUVECs. The format is cell-based, human. To be noted: for entry of the peptide into HUVECs: cotreatment with dextran beads for 5 h. From the text: No entry of the FITC-CycRAD peptide into HUVECs, nor entry of the FITC-CycRGD peptide into HeLas is observed.
Test [2] relates to HUVECs. The test can be described thus: Intracellular routing of TEAM-VP (confocal microscope). It counts as cell-based, human. The conditions noted are these: for codistribution with the lysosomes (anti-Lamp2-FITC): Streptavidin-Texas Red; for codistribution with the mitochondria (anti-VDAC): Streptavidin-FITC. The procedure:
HUVECs treated with TEAM-VP for 8, 24 and 32 h are observed using a confocal microscope.

Test [3] relates to HUVEC cells. The test can be described thus: Cytochrome c release in cellula (microscopy, anti-cytochrome c and anti-VDAC). The format is cell-based, human. To be noted: 24 h of treatment, 10 μM.
The test system of test [4] is HUVEC cells. Put plainly: Drop in mitochondrial membrane potential in cellula (JC-1, microscope). The format is cell-based, human. To be noted: HUVEC cells treated for 16-24 h with 15 μM, JC-1 labeling.
Test [5] addresses T1, αVβ3 integrins at the surface of endothelial cells (human, UniProt P06756 31-1048; P05106 27-788).
T1 construct: whole, on cells; Native integrin on HUVEC cells; the cells also carry other integrins (αVβ5 was stained as well); also called αVβ3 receptors
The test can be described thus: peptide brought into contact with endothelial cells; endocytosis, confocal microscopy.

The target in test [6] is T1, αVβ3 integrins at the surface of …. The test can be described thus: flow cytometry of FITC-labeled peptide on HUVEC cells (FIG. 2). Background: In flow cytometry, cells or beads pass a laser one at a time.
Protocol: The HUVEC cells were or were not preincubated for 30 min at ambient temperature with 200 μM of nonlabeled CycRGD peptide before the addition of FITC-CycRGD peptide (10 μM) for 45 min., and were analyzed by flow cytometry (FIG. 2b).

Positions of bridges follow the written chain, without caps; N, C: chain ends. No end group written: not given here.

T1 sequence (P06756 31-1048, chain 1 of 2): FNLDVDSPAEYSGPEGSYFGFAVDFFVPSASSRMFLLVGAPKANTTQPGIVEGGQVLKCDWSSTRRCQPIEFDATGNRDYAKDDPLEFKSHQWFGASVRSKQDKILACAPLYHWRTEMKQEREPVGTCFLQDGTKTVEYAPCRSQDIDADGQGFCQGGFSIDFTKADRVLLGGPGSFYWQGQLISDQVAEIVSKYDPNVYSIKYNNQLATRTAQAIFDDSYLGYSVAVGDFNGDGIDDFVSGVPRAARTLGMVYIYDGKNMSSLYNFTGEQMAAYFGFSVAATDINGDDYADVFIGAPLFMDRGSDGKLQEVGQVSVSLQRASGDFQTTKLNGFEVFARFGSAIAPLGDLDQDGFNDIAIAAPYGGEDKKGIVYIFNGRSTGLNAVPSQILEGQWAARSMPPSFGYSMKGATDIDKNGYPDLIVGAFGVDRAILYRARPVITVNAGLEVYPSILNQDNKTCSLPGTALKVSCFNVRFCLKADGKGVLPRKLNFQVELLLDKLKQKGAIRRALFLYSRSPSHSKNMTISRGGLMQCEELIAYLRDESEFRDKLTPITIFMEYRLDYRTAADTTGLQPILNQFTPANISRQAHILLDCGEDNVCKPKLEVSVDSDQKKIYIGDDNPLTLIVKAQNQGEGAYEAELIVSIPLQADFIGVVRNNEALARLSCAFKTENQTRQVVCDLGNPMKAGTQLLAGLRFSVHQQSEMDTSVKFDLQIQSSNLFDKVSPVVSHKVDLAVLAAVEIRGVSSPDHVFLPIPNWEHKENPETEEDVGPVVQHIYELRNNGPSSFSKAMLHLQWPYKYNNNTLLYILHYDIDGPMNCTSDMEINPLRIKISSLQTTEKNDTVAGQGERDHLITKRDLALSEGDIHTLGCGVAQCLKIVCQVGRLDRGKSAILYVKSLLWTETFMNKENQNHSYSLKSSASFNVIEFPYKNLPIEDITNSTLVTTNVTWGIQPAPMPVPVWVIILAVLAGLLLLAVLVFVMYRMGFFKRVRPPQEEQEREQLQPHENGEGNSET
T1 sequence (P05106 27-788, chain 2 of 2): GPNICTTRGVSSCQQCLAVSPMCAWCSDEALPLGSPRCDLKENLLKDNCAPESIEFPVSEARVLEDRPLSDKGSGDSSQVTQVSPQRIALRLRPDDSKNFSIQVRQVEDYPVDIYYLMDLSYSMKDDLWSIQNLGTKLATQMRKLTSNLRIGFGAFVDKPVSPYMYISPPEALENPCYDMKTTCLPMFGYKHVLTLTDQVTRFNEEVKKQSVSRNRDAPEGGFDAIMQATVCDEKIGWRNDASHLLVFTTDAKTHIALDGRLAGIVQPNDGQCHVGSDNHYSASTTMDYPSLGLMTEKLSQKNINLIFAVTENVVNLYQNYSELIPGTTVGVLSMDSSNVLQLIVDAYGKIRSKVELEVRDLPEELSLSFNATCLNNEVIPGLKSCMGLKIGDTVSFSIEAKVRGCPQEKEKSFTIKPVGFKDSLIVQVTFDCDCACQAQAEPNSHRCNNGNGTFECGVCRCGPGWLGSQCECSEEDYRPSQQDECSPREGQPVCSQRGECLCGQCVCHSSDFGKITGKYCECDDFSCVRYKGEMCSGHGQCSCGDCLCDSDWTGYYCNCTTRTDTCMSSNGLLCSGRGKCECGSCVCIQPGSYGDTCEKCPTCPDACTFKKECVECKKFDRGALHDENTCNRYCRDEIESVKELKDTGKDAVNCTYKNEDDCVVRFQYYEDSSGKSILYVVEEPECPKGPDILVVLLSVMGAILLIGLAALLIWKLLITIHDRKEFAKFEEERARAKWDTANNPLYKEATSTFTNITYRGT

With “GG*CRADMFG*CGG-amide (FITC, cyclised, GG/CGG flanks, amide) [FITC-CycRAD]”, the “entry of the peptide into HUVECs” value in the test with HUVECs [1] was “No entry”.
“GG*CRGDMFG*C-GG-LLFIHFRIGSRHSRIG-amide (GGCRGDMFGCGGLLFIHFRIGSRHSRIG-NH2; disulfide 3-10; N-terminus assumed; SMILES CC[C@H](C)[C@H](NC(=O)[C@H](CCCNC(=N)N)NC(=O)[C@H](CO)NC(=O)[C@H](Cc1c[nH]cn1)NC(=O)[C@H](CCCNC(=N)N)NC(=O)[C@H](CO)NC(=O)CNC(=O)[C@@H](NC(=O)[C@H](CCCNC(=N)N)NC(=O)[C@H](Cc1ccccc1)NC(=O)[C@H](Cc1c[nH]cn1)NC(=O)[C@@H](NC(=O)[C@H](Cc1ccccc1)NC(=O)[C@H](CC(C)C)NC(=O)[C@H](CC(C)C)NC(=O)CNC(=O)CNC(=O)[C@@H]1CSSC[C@H](NC(=O)CNC(=O)CN)C(=O)N[C@@H](CCCNC(=N)N)C(=O)NCC(=O)N[C@@H](CC(=O)O)C(=O)N[C@@H](CCSC)C(=O)N[C@@H](Cc2ccccc2)C(=O)NCC(=O)N1)[C@@H](C)CC)[C@@H](C)CC)C(=O)NCC(N)=O) [TEAM-VP]”: the “entry of the peptide under sodium azide+deoxyglucose” value in the test on HUVECs [1] (HUVECs, treatment with sodium azide+deoxyglucose) was “inhibited by treatment with sodium azide+deoxyglucose”. In addition, the “codistribution with the lysosomes (anti-Lamp2-FITC)” value with HUVECs [2] (8 h of treatment) is on record as “codistributes with the lysosomes”; in the test on HUVECs [2] (24 h of treatment), “would appear to leave these organelles”. In addition, the “codistribution with the mitochondria (anti-VDAC)” value with HUVECs [2] (24 h) is on record as “partially codistributes”; with HUVECs [2] (32 h), “totally codistributes”. Further, in the test with HUVECs [2] (throughout the treatment (8, 24 and 32 h)), the “codistribution with the Golgi apparatus (anti-Golgin)” value is reported as “No codistribution”. Also, in the test on HUVEC cells [3], the “release of cytochrome c in cellula” value is reported as “Release of cytochrome C observed”. The “drop in mitochondrial membrane potential in cellula” value in the test on HUVEC cells [4] is listed as “Drop in potential observed”.
Turning to “GG*CRGDMFG*CGG-amide (GGCRGDMFGCGG-NH2; disulfide 3-10; also: labeled with FITC in the binding assays) [FITC-CycRGD]”, the “colocalization with dextran beads” value with HUVECs [1] (HUVECs, cotreatment for 5 h) is “colocalize with dextran beads”. In the test with HUVECs [1], the “entry of the peptide into HUVECs” value is “enter the HUVECs”.

B1: TEAM-VP (SEQ ID No 2: GG*CRGDMFG*C-GG-[…]-amide) (peptide)
peptide: GGCRGDMFGCGGLLFIHFRIGSRHSRIG-NH2
modifications: disulfide 3-10; not fully specified; also: with or without biotin, FITC label also used
notes: also called chimeric peptide
Take B1: in test [5], the binding result is “binds”.

B2: GG*CRGDMFG*CGG-amide (CycRGD) (peptide)
peptide: GGCRGDMFGCGG-NH2
modifications: disulfide 3-10; also: labeled with FITC in the binding assays
notes: Cyclised targeting part of TEAM-VP; also called FITC-CycRGD; CycRGD peptide
As for B2, the binding result in test [6] is recorded as “binds”.
